Test results as given in US20260297060A1, “COMPOUNDS FOR THE DEGRADATION OF MUTANT BRAF” (C4 THERAPEUTICS, INC., priority 2023, published 2026).
Where two headings read alike, the source gives them in different places.

Assays:
A375-NRAS^Q61K cells = test: CTGlo Cell Viability Assay, A375-NRAS^Q61K (A375.11) cells, 96 hours; assay type: cell-based, human; settings: A375.11 (A375-NRAS^Q61K) cells; for Emax / CTGlo A375.11 96 hours Emax: lowest % viability achieved
Method in brief: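 A375 cells carrying BRAF V600E and NRAS Q61K were seeded at 250 cells/well with a 10-point half-log dose series (max 10 μM final). After 96 h at 37 °C, viability was read as ATP luminescence (CellTiter-Glo), background-subtracted and normalized to DMSO (100%). GI50 from 4-parameter fit; Emax is the lowest % viability.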

BRAF V600E = target: T1, BRAF V600E (Homo sapiens, UniProt P15056+Q96SW2, V600E); test: BRAF V600E HiBiT Degradation Assay; assay type: cell-based
T1 construct: knock-in of the HiBiT tag to the endogenous BRAF V600E locus; host or cells: A375.10 (A375 clonal line, CRISPR HiBiT knock-in at the endogenous BRAF V600E locus)
T1 sequence (P15056 whole entry V600E): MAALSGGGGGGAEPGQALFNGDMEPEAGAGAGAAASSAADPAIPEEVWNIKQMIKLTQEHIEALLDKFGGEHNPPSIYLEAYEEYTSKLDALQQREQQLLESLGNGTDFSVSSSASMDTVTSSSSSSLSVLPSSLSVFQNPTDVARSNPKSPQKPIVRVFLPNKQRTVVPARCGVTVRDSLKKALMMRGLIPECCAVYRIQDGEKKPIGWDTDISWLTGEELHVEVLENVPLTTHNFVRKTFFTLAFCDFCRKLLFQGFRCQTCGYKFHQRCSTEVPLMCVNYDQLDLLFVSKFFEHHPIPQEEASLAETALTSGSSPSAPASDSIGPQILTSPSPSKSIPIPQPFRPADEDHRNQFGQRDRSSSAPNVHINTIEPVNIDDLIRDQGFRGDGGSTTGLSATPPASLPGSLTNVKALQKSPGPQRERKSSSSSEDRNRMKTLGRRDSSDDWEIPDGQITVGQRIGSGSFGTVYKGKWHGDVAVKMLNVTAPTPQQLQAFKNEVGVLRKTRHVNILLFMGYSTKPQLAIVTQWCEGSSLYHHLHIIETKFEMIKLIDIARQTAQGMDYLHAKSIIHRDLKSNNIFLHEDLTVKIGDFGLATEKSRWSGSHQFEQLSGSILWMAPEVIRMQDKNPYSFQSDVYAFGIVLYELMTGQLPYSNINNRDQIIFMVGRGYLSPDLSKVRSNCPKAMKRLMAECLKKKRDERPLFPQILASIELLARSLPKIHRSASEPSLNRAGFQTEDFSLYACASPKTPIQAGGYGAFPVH
T1 sequence (Q96SW2 whole entry): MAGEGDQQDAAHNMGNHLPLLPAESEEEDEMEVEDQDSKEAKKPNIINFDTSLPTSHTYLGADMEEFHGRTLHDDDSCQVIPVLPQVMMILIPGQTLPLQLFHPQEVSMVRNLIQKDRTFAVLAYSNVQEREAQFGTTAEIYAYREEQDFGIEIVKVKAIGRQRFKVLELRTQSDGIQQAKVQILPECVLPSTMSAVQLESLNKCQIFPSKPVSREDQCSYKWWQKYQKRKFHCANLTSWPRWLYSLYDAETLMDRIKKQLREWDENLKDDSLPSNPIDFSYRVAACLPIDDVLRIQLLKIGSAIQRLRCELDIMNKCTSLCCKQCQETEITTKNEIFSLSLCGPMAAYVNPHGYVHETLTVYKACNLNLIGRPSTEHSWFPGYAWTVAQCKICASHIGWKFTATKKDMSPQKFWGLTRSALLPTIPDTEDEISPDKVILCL
T1 sequence (Q16531 whole entry partner): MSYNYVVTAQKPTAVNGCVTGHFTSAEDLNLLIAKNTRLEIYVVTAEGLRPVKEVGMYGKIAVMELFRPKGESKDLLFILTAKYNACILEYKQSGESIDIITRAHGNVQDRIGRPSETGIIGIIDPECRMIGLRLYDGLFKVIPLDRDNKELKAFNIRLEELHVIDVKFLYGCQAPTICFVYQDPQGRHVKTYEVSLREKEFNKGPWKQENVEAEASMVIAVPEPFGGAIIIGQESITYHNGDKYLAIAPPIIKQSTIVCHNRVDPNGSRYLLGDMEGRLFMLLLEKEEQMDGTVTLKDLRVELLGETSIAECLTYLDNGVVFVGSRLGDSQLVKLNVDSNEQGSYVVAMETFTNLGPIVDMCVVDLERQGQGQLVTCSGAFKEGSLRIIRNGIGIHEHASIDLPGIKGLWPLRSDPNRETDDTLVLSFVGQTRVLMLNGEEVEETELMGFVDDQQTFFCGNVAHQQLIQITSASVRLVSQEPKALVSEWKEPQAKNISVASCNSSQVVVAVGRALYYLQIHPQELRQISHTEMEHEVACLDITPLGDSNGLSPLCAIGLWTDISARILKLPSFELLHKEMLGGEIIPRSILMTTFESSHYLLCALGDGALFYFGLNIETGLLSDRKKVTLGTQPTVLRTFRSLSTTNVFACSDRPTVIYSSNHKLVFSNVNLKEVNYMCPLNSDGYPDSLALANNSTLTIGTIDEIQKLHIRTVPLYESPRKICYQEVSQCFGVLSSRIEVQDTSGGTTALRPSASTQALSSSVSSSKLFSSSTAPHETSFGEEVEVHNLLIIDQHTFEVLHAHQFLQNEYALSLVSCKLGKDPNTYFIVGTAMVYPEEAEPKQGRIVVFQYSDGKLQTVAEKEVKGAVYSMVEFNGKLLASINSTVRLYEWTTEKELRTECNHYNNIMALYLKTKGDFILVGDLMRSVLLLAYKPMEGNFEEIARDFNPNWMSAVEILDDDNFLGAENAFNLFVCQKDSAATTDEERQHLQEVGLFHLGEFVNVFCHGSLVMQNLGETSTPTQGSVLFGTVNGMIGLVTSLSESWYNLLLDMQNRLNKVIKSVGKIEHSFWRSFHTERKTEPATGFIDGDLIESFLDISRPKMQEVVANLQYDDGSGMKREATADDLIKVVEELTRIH
Method in brief: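 Endogenous HiBiT knock-in on BRAF V600E in A375 cells (clone A375.10); 11-point half-log series, top 10 μM, 2, 6 or 24 h at 37° C. Lytic HiBiT luminescence, background-subtracted, normalized to DMSO; 4-parameter fit gives DC50, Emax (residual protein) and IP (inflection point).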

[1] = A375.10 cells, BRAF V600E, 2 hours, inflection point, read-out: HiBiT-Degradation A375.10 BRAF 2 hours IP
[2] = A375.10 cells, BRAF V600E, 2 hours, read-out: HiBiT-Degradation A375.10 BRAF 2 hours DC50
[3] = A375.10 cells, BRAF V600E, 2 hours, residual protein remaining, read-out: HiBiT-Degradation A375.10 BRAF 2 hours Emax

Row | SMILES | GI50 (A375-NRAS^Q61K cells; Homo sapiens, 96 h) [nM] | Emax (A375-NRAS^Q61K cells; Homo sapiens, 96 h) [%] | DC50 (BRAF V600E; [1]) [nM] | DC50 (BRAF V600E; [2]) [nM] | Emax (BRAF V600E; [3]) [%] | DC50 (BRAF V600E; A375.10 cells, HiBiT, BRAF V600E, 24 hours, read-out: HiBiT-Degradation A375.10 BRAF 24 hours DC50) [nM] | Emax (BRAF V600E; A375.10 cells, HiBiT, BRAF V600E, 24 hours, read-out: HiBiT-Degradation A375.10 BRAF 24 hours Emax) [%] | DC50 (BRAF V600E; A375.10 cells, HiBiT, BRAF V600E, 24 hours, read-out: HiBiT-Degradation A375.10 BRAF 24 hours IP) [nM] | Emax (BRAF V600E; read-out: HiBiT-Degradation A375.10 BRAF 2 hours Emax, A375.10 cells, BRAF V600E, 2 hours, residual protein remaining) [%] | GI50 (A375-NRAS^Q61K cells) [nM] | CTGlo A375.11 96 hours Emax (A375-NRAS^Q61K cells) | HiBiT-Degradation A375.10 BRAF 2 hours Emax (BRAF V600E) | HiBiT-Degradation A375.10 BRAF 2 hours Emax (BRAF V600E; A375.10 cells, BRAF V600E, 2 hours, residual protein remaining)
1 | CCN(C)S(=O)(=O)Nc1ccc(F)c(Oc2ccc3ncc(OCC4(F)CCN(C5CCC(c6cc7c(cc6F)c(N6CCC(=O)NC6=O)nn7C)CC5)CC4)nc3c2)c1C#N (single isomer, unassigned) [Compound 228, 7-[2-cyano-3-[[ethyl(methyl)sulfamoyl]amino]-6-fluoro-phenoxy]-2-[[1-[4-[3-(2,4-dioxohexahydropyrimidin-1-yl)-5-fluoro-1-methyl-indazol-6-yl]cyclohexyl]-4-fluoro-4-piperidyl]methoxy]quinoxaline] | 1000 to 10000 | 50 to 90 | < 1000 | 1000 to 10000 | 50 to 90 | – | – | – | – | – | – | – | –
2 | CCN(C)S(=O)(=O)Nc1ccc(F)c(Oc2ccc3ncn(C4CC5(CCN(C6CC7(C6)CN(c6cc8c(cc6F)c(N6CCC(=O)NC6=O)nn8C)C7)CC5)C4)c(=O)c3c2)c1F (stereo not shown) [Compound 164, 3-[7-[2-[3-(2,4-dioxohexahydropyrimidin-1-yl)-5-fluoro-1-methyl-indazol-6-yl]-2-azaspiro[3.3]heptan-6-yl]-7-azaspiro[3.5]nonan-2-yl]-6-[3-[[ethyl(methyl)sulfamoyl]amino]-2,6-difluoro-phenoxy]-4-oxo-quinazoline] | 1000 to 10000 | 50 to 90 | < 1000 | < 1000 | 50 to 90 | – | – | – | – | – | – | – | –
3 | CCN(C)S(=O)(=O)Nc1ccc(F)c(Oc2ccc3ncn(C4CC5(C4)CN(C4CCC(c6cc7c(cc6F)c(N6CCC(=O)NC6=O)nn7C)CC4F)C5)c(=O)c3c2)c1C#N (single isomer, unassigned) [Compound 299] | 1000 to 10000 | 50 to 90 | < 1000 | 1000 to 10000 | – | < 1000 | < 50 | < 1000 | 50 to 90 | – | – | – | –
4 | CCN(C)S(=O)(=O)Nc1ccc(F)c(Oc2ccc3ncn(CCC4CCN(C5CCC(c6cc7c(cc6F)c(N6CCC(=O)NC6=O)nn7C)CC5)CC4)c(=O)c3c2)c1C#N (single isomer, unassigned) [Compound 137, 6-[2-cyano-3-[[ethyl(methyl)sulfamoyl]amino]-6-fluoro-phenoxy]-3-[2-[1-[4-[3-(2,4-dioxohexahydropyrimidin-1-yl)-5-fluoro-1-methyl-indazol-6-yl]cyclohexyl]-4-piperidyl]ethyl]-4-oxo-quinazoline] | 1000 to 10000 | 50 to 90 | < 1000 | < 1000 | 50 to 90 | – | – | – | – | – | – | – | –
5 | Cn1nc(N2CCC(=O)NC2=O)c2cc(F)c([C@H]3CC[C@@H](N4CCC5(CC4)CC(c4cnc6ccc(Oc7c(F)ccc(NS(=O)(=O)N8CC[C@@H](F)C8)c7C#N)cc6n4)C5)CC3)cc21 (single isomer, unassigned) [Compound 268] | < 1000 | < 50 | < 1000 | < 1000 | < 50 | – | – | – | – | – | – | – | –
6 | CCN(C)S(=O)(=O)Nc1ccc(F)c(Oc2ccc3ncn(C4[C@H]5CN(C6CCC(c7cc8c(cc7F)c(N7CCC(=O)NC7=O)nn8C)CC6)C[C@@H]45)c(=O)c3c2)c1C#N (single isomer, unassigned) [Compound 240] | 1000 to 10000 | 50 to 90 | < 1000 | < 1000 | < 50 | – | – | – | – | – | – | – | –
7 | CCN(C)S(=O)(=O)Nc1ccc(F)c(Oc2ccc3ncn(C4CC5(CCN(CC6CCN(c7cc8c(cc7F)c(N7CCC(=O)NC7=O)nn8C)CC6)CC5)C4)c(=O)c3c2)c1C#N [Compound 255, 6-[2-cyano-3-[[ethyl(methyl)sulfamoyl]amino]-6-fluoro-phenoxy]-3-[7-[[1-[3-(2,4-dioxohexahydropyrimidin-1-yl)-5-fluoro-1-methyl-indazol-6-yl]-4-piperidyl]methyl]-7-azaspiro[3.5]nonan-2-yl]-4-oxo-quinazoline] | > 10000 | 50 to 90 | < 1000 | < 1000 | 50 to 90 | – | – | – | – | – | – | – | –
8 | CCN(C)S(=O)(=O)Nc1ccc(F)c(Oc2ccc3ncc(C4CC5(CCN(C6CCN(c7cc8c(cc7F)c(N7CCC(=O)NC7=O)nn8C)CC6)CC5)C4)nc3c2)c1C#N [Compound 256, 7-[2-cyano-3-[[ethyl(methyl)sulfamoyl]amino]-6-fluoro-phenoxy]-2-[7-[1-[3-(2,4-dioxohexahydropyrimidin-1-yl)-5-fluoro-1-methyl-indazol-6-yl]-4-piperidyl]-7-azaspiro[3.5]nonan-2-yl]quinoxaline] | < 1000 | 50 to 90 | < 1000 | < 1000 | < 50 | – | – | – | – | – | – | – | –
9 | CCN(C)S(=O)(=O)Nc1ccc(F)c(Oc2ccc3ncc(CC4CCN(C5CCC(c6ccc(NC7CCC(=O)NC7=O)cc6F)CC5)CC4)nc3c2)c1C#N (single isomer, unassigned) [Compound 147, 7-[2-cyano-3-[[ethyl(methyl)sulfamoyl]amino]-6-fluoro-phenoxy]-2-[[1-[4-[4-[(2,6-dioxo-3-piperidyl)amino]-2-fluoro-phenyl]cyclohexyl]-4-piperidyl]methyl]quinoxaline] | > 10000 | 50 to 90 | < 1000 | > 10000 | 50 to 90 | – | – | – | – | – | – | – | –
10 | CCN(C)S(=O)(=O)Nc1ccc(F)c(Oc2ccc3ncn([C@H]4COC5(CCC(N6CC7(CN(c8ccc(NC9CCC(=O)NC9=O)cc8F)C7)C6)CC5)C4)c(=O)c3c2)c1C#N (single isomer, unassigned) [Compound 192] | – | – | < 1000 | < 1000 | – | – | – | – | – | > 10000 | *** (<=50%) | ** (<90% and >50%) | –
11 | CCN(C)S(=O)(=O)Nc1ccc(F)c(Oc2ccc3ncn([C@H]4CCC5(CCN(C6CCC(c7ccc(NC8CCC(=O)NC8=O)cc7F)CC6)CC5)C4)c(=O)c3c2)c1C#N (single isomer, unassigned) [Compound 25] | – | – | < 1000 | 1000 to 10000 | – | – | – | – | – | < 1000 | ** (<90% and >50%) | – | ** (<90% and >50%)
12 | CCN(C)S(=O)(=O)Nc1ccc(F)c(Oc2ccc3ncn([C@H]4COC5(CCC(N6C7COCC6CC(c6cc8c(cc6F)c(N6CCC(=O)NC6=O)nn8C)C7)CC5)C4)c(=O)c3c2)c1C#N (single isomer, unassigned) [Compound 155] | > 10000 | 50 to 90 | < 1000 | < 1000 | 50 to 90 | – | – | – | – | – | – | – | –
13 | CCN(C)S(=O)(=O)Nc1ccc(F)c(Oc2ccc3ncn(C4CCN(C5CC6(CCN(c7cc8c(cc7F)c(N7CCC(=O)NC7=O)nn8C)CC6)C5)CC4)c(=O)c3c2)c1C#N [Compound 274, 6-[2-cyano-3-[[ethyl(methyl)sulfamoyl]amino]-6-fluoro-phenoxy]-3-[1-[7-[3-(2,4-dioxohexahydropyrimidin-1-yl)-5-fluoro-1-methyl-indazol-6-yl]-7-azaspiro[3.5]nonan-2-yl]-4-piperidyl]-4-oxo-quinazoline] | < 1000 | < 50 | < 1000 | < 1000 | < 50 | – | – | – | – | – | – | – | –
14 | CCN(C)S(=O)(=O)Nc1ccc(F)c(Oc2ccc3ncn(CC4CCN(C5CCN(c6cc7c(cc6F)c(N6CCC(=O)NC6=O)nn7C)CC5)CC4)c(=O)c3c2)c1C#N [Compound 264, 6-[2-cyano-3-[[ethyl(methyl)sulfamoyl]amino]-6-fluoro-phenoxy]-3-[[1-[1-[3-(2,4-dioxohexahydropyrimidin-1-yl)-5-fluoro-1-methyl-indazol-6-yl]-4-piperidyl]-4-piperidyl]methyl]-4-oxo-quinazoline] | 1000 to 10000 | 50 to 90 | < 1000 | < 1000 | < 50 | – | – | – | – | – | – | – | –
